In patent EP4806898A1, “HETEROARYL DERIVATIVE COMPOUND AND USE THEREOF” (Voronoi Inc., priority 2023, dated 2025):

What was measured:
[1] = target: T1, recombinant USP1 protein (Homo sapiens, UniProt O94782, DEL125-138/DEL229-408/DEL608-737); experiment: Binding affinity to recombinant USP1 protein by differential scanning fluorimetry; settings: compound 100 µM; 0.03 mg/mL USP1 (Δ1-66, Δ125-138, Δ229-408, Δ608-737); Tm with compound minus Tm with DMSO; read-out: ΔTm (°C)
T1 sequence (O94782 with tags, fused parts or gaps DEL125-138/DEL229-408/DEL608-737): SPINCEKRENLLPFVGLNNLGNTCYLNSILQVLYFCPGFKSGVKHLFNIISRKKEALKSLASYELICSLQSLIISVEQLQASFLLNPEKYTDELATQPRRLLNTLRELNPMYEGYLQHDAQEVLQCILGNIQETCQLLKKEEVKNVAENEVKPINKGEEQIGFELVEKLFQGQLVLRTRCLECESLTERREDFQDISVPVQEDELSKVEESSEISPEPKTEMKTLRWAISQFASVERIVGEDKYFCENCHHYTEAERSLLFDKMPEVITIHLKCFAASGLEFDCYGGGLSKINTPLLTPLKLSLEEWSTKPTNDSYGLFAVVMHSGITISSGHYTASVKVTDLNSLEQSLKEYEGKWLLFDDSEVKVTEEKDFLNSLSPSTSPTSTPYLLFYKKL
Procedure, shortened: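 USP1 (Δ1-66, Δ125-138, Δ229-408, Δ608-737) at 0.03 mg/mL with dye in 50 mM Tris-HCl pH 8.0, 150 mM NaCl, 2% glycerol, 1 mM DTT; compounds at 100 µM final. Tm read on real-time PCR instrument; ΔTm = Tm with compound minus Tm with DMSO.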

[2] = tested on: UWB1.289 cells; experiment: Cell proliferation inhibitory activity in BRCA1/2-mutant or HRD-positive cells (Cell Titer-Glo); format: cell-based; settings: UWB1289; UWB1.289 cells, 144 hours after compound treatment, Cell Titer-Glo, 1.5 nM to 10 µM; read-out: GI50 UWB1.289 BRCA1 mut
Procedure, shortened: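 UWB1.289 cells (1,000/well) in 50% MEBM/50% RPMI1640 exposed to […], final 1.5 nM to 10 µM, for 144 h at 37 °C. Viable cells measured by CellTiter-Glo luminescence; GI50 calculated.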

| ΔTm at 100 µM [1] [°C] | SMILES | GI50 [2] [nM] |
| --- | --- | --- |
| > 5 | COC(=O)CNC(=O)c1cc2cnc(-c3c(OC)ncnc3C3CC3)nc2n1Cc1ccc(-c2nc(C(F)(F)F)cn2C(C)C)cc1 [Example 45, methyl (2-(4-cyclopropyl-6-methoxypyrimid in-5-yl)-7-(4-(1-isopropyl-4-(trifluoromethyl)-1H-imidazol-2-yl)benzyl)-7H-pyrrolo[2,3-d]pyrimidine-6-carbonyl)glyci nate] | < 100 |
| > 5 | COc1ncnc(C2CC2)c1-c1ncc2cc(C(=O)NCCN3CCCC3)n(Cc3ccc(-c4nc(C(F)(F)F)cn4C(C)C)cc3)c2n1 [Example 47, 2-(4-cyclopropyl-6-methoxypyrimidin-5-yl)-7-(4-(1-isopropyl-4-(trifluoromethyl)-1H-imidazol-2-yl)benzyl)-N-(2-(pyrrolidin-1-yl)ethyl)-7H-pyrrolo[2,3-d]pyrimidine-6-carboxamide] | < 100 |
| > 5 | COc1ncnc(C2CC2)c1-c1ncc2cc(C(=O)NC(C)C)n(Cc3ccc(-c4nc(C(F)(F)F)cn4C(C)C)cc3)c2n1 [Example 48, 2-(4-cyclopropyl-6-methoxypyrimidin-5-yl)-N-isopropyl-7-(4-(1-isopropyl-4-(trifluoromethyl)-1H-imidazol-2-yl)benzyl)-7H-pyrrolo[2,3-d]pyrimidine-6-carboxamide] | < 100 |
| > 5 | COc1ncnc(C2CC2)c1-c1ncc2cc(C(=O)NCc3ccccc3)n(Cc3ccc(-c4nc(C(F)(F)F)cn4C(C)C)cc3)c2n1 [Example 49, N-benzyl-2-(4-cyclopropyl-6-methoxypyrimidin-5-yl)-7-(4-(1-isopropyl-4-(trifluoromethyl)-1H-imidazol-2-yl)benzyl)-7H-pyrrolo[2,3-d]pyrimidine-6-carboxamide] | 100 to 500 |
| > 5 | COc1ncnc(C2CC2)c1-c1ncc2cc(C(=O)N3CC[C@H](N(C)C)C3)n(Cc3ccc(-c4nc(C(F)(F)F)cn4C(C)C)cc3)c2n1 [Example 50, (S)-(2-(4-cyclopropyl-6-methoxypyrimidin-5-yl)-7-(4-(1-isopropyl-4-(trifluoromethyl)-1H-imidazol-2-yl)benzyl)-7H-pyrrolo[2,3-d]pyrimidin-6-yl) (3-(dimethylamino)pyrrolidin-1-yl)methanone] | 100 to 500 |
| > 5 | COc1ncnc(C2CC2)c1-c1ncc2cc(C(=O)N3CCCC3)n(Cc3ccc(-c4nc(C(F)(F)F)cn4C(C)C)cc3)c2n1 [Example 51, (2-(4-cyclopropyl-6-methoxypyrimid in-5-yl)-7-(4-(1-isopropyl-4-(trifluoromethyl)-1H-imidazol-2-yl)benzyl)-7H-pyrrolo[2,3-d]pyrimidin-6-yl)(pyrrolidin-1-yl)methanone] | < 100 |
| > 5 | CCN(CC)CCNC(=O)c1cc2cnc(-c3c(OC)ncnc3C3CC3)nc2n1Cc1ccc(-c2nc(C(F)(F)F)cn2C(C)C)cc1 [Example 52, 2-(4-cyclopropyl-6-methoxypyrimidin-5-yl)-N-(2-(diethylamino)ethyl)-7-(4-(1-isopropyl-4-(trifluoromethyl)-1H-imidazol-2-yl)benzyl)-7H-pyrrolo[2,3-d]pyrimidine-6-carboxamide] | 100 to 500 |
| > 5 | COc1ncnc(C2CC2)c1-c1ncc2cc(C(=O)N3CC(N(C)C)C3)n(Cc3ccc(-c4nc(C(F)(F)F)cn4C(C)C)cc3)c2n1 [Example 53, (2-(4-cyclopropyl-6-methoxypyrimid in-5-yl)-7-(4-(1-isopropyl-4-(trifluoromethyl)-1H-imidazol-2-yl)benzyl)-7H-pyrrolo[2,3-d]pyrimidin-6-yl) (3-(dimethylamino)azetidin-1-yl)methanone] | < 100 |
| > 5 | COc1ncnc(C2CC2)c1-c1ncc2cc(C(=O)N3CCN4CCCC4C3)n(Cc3ccc(-c4nc(C(F)(F)F)cn4C(C)C)cc3)c2n1 (centres unmarked) [Example 55, (2-(4-cyclopropyl-6-methoxypyrimid in-5-yl)-7-(4-(1-isopropyl-4-(trifluoromethyl)-1H-imidazol-2-yl)benzyl)-7H-pyrrolo[2,3-d]pyrimidin-6-yl) (hexahydrop yrrolo[1,2-a]pyrazin-2 (1H) - yl)methanone] | 100 to 500 |
| > 5 | COc1ncnc(C2CC2)c1-c1ncc2cc(C(=O)N3CCOC4(CCC4)C3)n(Cc3ccc(-c4nc(C(F)(F)F)cn4C(C)C)cc3)c2n1 [Example 56, (2-(4-cyclopropyl-6-methoxypyrimid in-5-yl)-7-(4-(1-isopropyl-4-(trifluoromethyl)-1H-imidazol-2-yl)benzyl)-7H-pyrrolo[2,3-d]pyrimidin-6-yl) (5-oxa-8-azaspiro[3.5]nonan-8-yl)methanone] | 100 to 500 |
| > 5 | CCN1CCN(C(=O)c2cc3cnc(-c4c(OC)ncnc4C4CC4)nc3n2Cc2ccc(-c3nc(C(F)(F)F)cn3C(C)C)cc2)CC1 [Example 57, (2-(4-cyclopropyl-6-methoxypyrimid in-5-yl)-7-(4-(1-isopropyl-4-(trifluoromethyl)-1H-imidazol-2-yl)benzyl)-7H-pyrrolo[2,3-d]pyrimidin-6-yl) (4-ethylpiperazin-1-yl)methanone] | < 100 |
| > 5 | COc1ncnc(C2CC2)c1-c1ncc2cc(C(=O)NC[C@H]3CCCN3)n(Cc3ccc(-c4nc(C(F)(F)F)cn4C(C)C)cc3)c2n1 [Example 58, (R) -2-(4-cyclopropyl-6-methoxypyrimidin-5-yl)-7-(4-(1-isopropyl-4-(trifluoromethyl)-1H-imidazol-2-yl)benzyl)-N-(pyrrolidin-2-ylmethyl)-7H-pyrrolo[2,3-d]pyrimidine-6-carboxamide] | < 100 |
| > 5 | C#CCNC(=O)c1cc2cnc(-c3c(OC)ncnc3C3CC3)nc2n1Cc1ccc(-c2nc(C(F)(F)F)cn2C(C)C)cc1 [Example 60, 2-(4-cyclopropyl-6-methoxypyrimidin-5-yl)-7-(4-(1-isopropyl-4-(trifluoromethyl)-1H-imidazol-2-yl)benzyl)-N-(prop-2-yn-1-yl)-7H-pyrrolo[2,3-d]pyrimidine-6-carboxamide] | < 100 |
| > 5 | COc1ncnc(C2CC2)c1-c1ncc2cc(C(=O)NCC(C)(C)O)n(Cc3ccc(-c4nc(C(F)(F)F)cn4C(C)C)cc3)c2n1 [Example 61, 2-(4-cyclopropyl-6-methoxypyrimidin-5-yl)-N-(2-hydroxy-2-methylpropyl)-7-(4-(1-isopropyl-4-(trifluoromethyl)-1H-imidazol-2-yl)benzyl)-7H-pyrrolo[2,3-d]pyrimidine-6-carboxamide] | < 100 |
| > 5 | C=CCCNC(=O)c1cc2cnc(-c3c(OC)ncnc3C3CC3)nc2n1Cc1ccc(-c2nc(C(F)(F)F)cn2C(C)C)cc1 [Example 64, N-(but-3-en-1-yl)-2-(4-cyclopropyl-6-methoxypyrimidin-5-yl)-7-(4-(1-isopropyl-4-(trifluoromethyl)-1H-imidazol-2-yl)benzyl)-7H-pyrrolo[2,3-d]pyrimidine-6-carboxamide] | 100 to 500 |
| > 5 | COc1ncnc(C2CC2)c1-c1ncc2cc(C(=O)N3C[C@H]4C[C@@H]3CO4)n(Cc3ccc(-c4nc(C(F)(F)F)cn4C(C)C)cc3)c2n1 [Example 65, ((1R,4R)-2-oxa-5-azabicyclo[2.2 .1]heptan-5-yl)(2-(4-cyclopropyl-6-methoxypyrimidin-5-yl)-7-(4-(1-isopropyl-4-(trifluoromethyl)-1H-imidazol-2-yl)benzyl)-7H-pyrrolo[2,3-d]pyrimidin-6-yl)methanone] | 100 to 500 |
| > 5 | COc1ncnc(C2CC2)c1-c1ncc2cc(C(=O)NC[C@@H]3CCO3)n(Cc3ccc(-c4nc(C(F)(F)F)cn4C(C)C)cc3)c2n1 [Example 66, (S)-2-(4-cyclopropyl-6-methoxypyrimidin-5-yl)-7-(4-(1-isopropyl-4-(trifluoromethyl)-1H-imidazol-2-yl)benzyl)-N-(oxetan-2-ylmethyl)-7H-pyrrolo[2,3-d]pyrimidine-6-carboxamide] | < 100 |
| > 5 | COc1ncnc(C2CC2)c1-c1ncc2cc(C(=O)N3CCCC(O)C3)n(Cc3ccc(-c4nc(C(F)(F)F)cn4C(C)C)cc3)c2n1 (centres unmarked) [Example 67, (2-(4-cyclopropyl-6-methoxypyrimid in-5-yl)-7-(4-(1-isopropyl-4-(trifluoromethyl)-1H-imidazol-2-yl)benzyl)-7H-pyrrolo[2,3-d]pyrimidin-6-yl) (3-hydroxypiperid in-1-yl)methanone] | < 100 |
| > 5 | CCn1cc(C(F)(F)F)nc1-c1ccc(Cn2c(C(=O)NC)cc3cnc(-c4c(OC)ncnc4C4CC4)nc32)cc1 [Example 68, 2-(4-cyclopropyl-6-methoxypyrimidin-5-yl)-7-(4-(1-ethyl-4-(trifluoromethyl)-1H-imidazol-2-yl)benzyl)-N-methyl-7H-pyrrolo[2,3-d]pyrimidine-6-carboxamide] | < 100 |
